Experiments:
[1] = tested on: human 786-0 RCC cells; assay: Tumor size of human 786-0 RCC xenografts in mice treated with sorafenib; assay type: in vivo; conditions: tumor approximately 12 mm diameter at start
Method: A panel of biomarkers was measured in RCC xenograft tissue extracts from mice. The mice were implanted with human 786-0 RCC cells and the cells were allowed to grow until a tumor of approximately 12 mm diameter was formed. The “Set A” group of mice received no drug treatment prior to removal of the xenograft tissue. The other two groups of mice—“Set C” and “Set D”—were treated with sorafenib prior to removal of the xenograft tissue. […] The “Set D” developed resistance to the drug and the tumor size increased to 16 mm in diameter during treatment.

[2] = tested on: human 786-0 RCC cells; assay: Multiplex immunoassay of biomarker levels in RCC xenograft tissue extracts from mice; assay type: in vivo; conditions: for AMPKa1 Total marker concentration +/- SD / AMPKa1 p174 marker concentration +/- SD / AMPKa1 p285 marker concentration +/- SD / Gsk3b Phospho marker concentration +/- SD / Gsk3b Total marker concentration +/- SD / Mek1/2 Phospho marker concentration +/- SD / Mek1/2 Total marker concentration +/- SD: 1 ug protein/well; for STAT3 Phospho marker concentration +/- SD: 2 ug protein/well; for Hif1a Total marker concentration +/- SD: 4 ug protein/well
Method: A panel of biomarkers was measured in RCC xenograft tissue extracts from mice. The mice were implanted with human 786-0 RCC cells and the cells were allowed to grow until a tumor of approximately 12 mm diameter was formed. The “Set A” group of mice received no drug treatment prior to removal of the xenograft tissue.
Multiplex immunoassay kits were used for detection of total and/or phosphorylated biomarkers (supplied by Meso Scale Diagnostics, LLC, Gaithersburg, Md.). Levels of each biomarker were determined by calibration of the assays with were either purified calibrator proteins or using control cell lysates from appropriately treated cultured cell lines (e.g., cells subjected to conditions known to induce or reduce levels of a specific biomarker). Calibration curves were derived by testing serial dilutions of the calibrator lysates or purified proteins. Levels of biomarkers in test samples were back-calculated from the calibration curves and were expressed in terms of wt. of protein per weight of tissue extract (for purified calibrators) or in terms of weight of crude control lysate protein per well (for lysate calibrators). Titrations of tumor extracts were carried out to determine the linearity of the assay response to sample dilution and to select the sample dilution that would be appropriate to use for each assay panel.
In general, the assay format was as follows, with minor alterations for specific assay panels as indicated in the assay protocols provided with each assay kit (supplied by Meso Scale Diagnostics, LLC): (1) block MSD MULTI-SPOT® plate for 1 hour with appropriate MSD® blocking solution and wash; (2) add 25 μl assay diluent to each well, if specified; (3) add 25 μl calibrator, or sample (diluted as appropriate) to each well; (4) incubate with shaking for 1-3 hours (time as specified) and wash the well; (5) add 25 μl labeled detection antibody solution to each well; (6) incubate with shaking for 1-2 hours (time as specified) and wash the well; (7) add 150 μl MSD read buffer to each well; (8) read plate immediately on MSD SI6000 Reader (supplied by Meso Scale Diagnostics, LLC).

[3] = tested on: tumor vasculature; conditions: xenograft studies; cited from earlier work
[4] = tested on: GSK30; conditions: melanoma cells; cited from earlier work
[5] = Tumor Group C (treated), sensitive to sorafenib, 0.5 ug total protein/well
[6] = Tumor Group C (treated), sensitive to sorafenib
[7] = Tumor Group C (treated), sensitive to sorafenib, 2.5 ug protein/well
[8] = Tumor Group D (resistant), sorafenib treated, 0.5 ug total protein/well
[9] = Tumor Group D (resistant), sorafenib treated
[10] = Tumor Group D (resistant), sorafenib treated, 2.5 ug protein/well

CNC(=O)c1cc(Oc2ccc(NC(=O)Nc3ccc(Cl)c(C(F)(F)F)c3)cc2)ccn1 [sorafenib]
tumor size ([1]; Set C, sensitive): tumor size decreased | tumor size (diameter) during treatment ([1]; Set D, developed resistance): 16 mm | Akt Phospho marker concentration +/- SD [2, 5]: 348 +/− 85 ng calibrator lysate protein/w | Akt Total marker concentration +/- SD [2, 5]: 142 +/− 43 ng calibrator lysate protein/w | Erk1/2 Phospho marker concentration +/- SD [2, 5]: 102 +/− 45 ng calibrator lysate protein/w | Met Phospho marker concentration +/- SD [2, 5]: 34 +/− 7 ng calibrator lysate protein/w | Met Total marker concentration +/- SD [2, 5]: 850 +/− 375 ng calibrator lysate protein/w | p21 Total marker concentration +/- SD [2, 5]: 1.1 +/− 0.3 pg/ug tumor protein | p38 Total marker concentration +/- SD [2, 5]: 449 +/− 266 ng calibrator lysate protein/w | AMPKa1 Total marker concentration +/- SD [2, 6]: 29 +/− 13 pg/ug tumor protein | AMPKa1 p174 marker concentration +/- SD [2, 6]: 7.3 +/− 4.4 pg/ug tumor protein | AMPKa1 p285 marker concentration +/- SD [2, 6]: 29 +/− 15 pg/ug tumor protein | Gsk3b Phospho marker concentration +/- SD [2, 6]: 1188 +/− 446 ng calibrator lysate protein/w | Gsk3b Total marker concentration +/- SD [2, 6]: 3771 +/− 1491 ng calibrator lysate protein/w | Mek1/2 Phospho marker concentration +/- SD [2, 6]: 116 +/− 21 ng calibrator lysate protein/w | Mek1/2 Total marker concentration +/- SD [2, 6]: 350 +/− 90 ng calibrator lysate protein/w | STAT3 Phospho marker concentration +/- SD [2, 6]: 65 +/− 16 ng calibrator lysate protein/w | Jnk Phospho marker concentration +/- SD [2, 7]: 74 +/− 29 ng calibrator lysate protein/w | Jnk Total marker concentration +/- SD [2, 7]: 983 +/− 356 ng calibrator lysate protein/w | PlGF Total marker concentration +/- SD [2, 7]: 0.083 +/− 0.031 pg/ug tumor protein | VEGFR-1 Total marker concentration +/- SD [2, 7]: 0.26 +/− 0.08 pg/ug tumor protein | bFGF Total marker concentration +/- SD [2, 7]: 2.1 +/− 0.6 pg/ug tumor protein | Hif1a Total marker concentration +/- SD [2, 6]: 19 +/− 3 ng calibrator lysate protein/w | Akt Phospho marker concentration +/- SD [2, 8]: 354 +/− 84 ng calibrator lysate protein/w | Akt Total marker concentration +/- SD [2, 8]: 93 +/− 25 ng calibrator lysate protein/w | Erk1/2 Phospho marker concentration +/- SD [2, 8]: 206 +/− 103 ng calibrator lysate protein/w | Erk1/2 Total marker concentration +/- SD [2, 8]: 486 +/− 306 ng calibrator lysate protein/w | Met Phospho marker concentration +/- SD [2, 8]: 41 +/− 6 ng calibrator lysate protein/w | Met Total marker concentration +/- SD [2, 8]: 595 +/− 137 ng calibrator lysate protein/w | p21 Total marker concentration +/- SD [2, 8]: 2.2 +/− 0.9 pg/ug tumor protein | p38 Total marker concentration +/- SD [2, 8]: 428 +/− 227 ng calibrator lysate protein/w | AMPKa1 Total marker concentration +/- SD [2, 9]: 26 +/− 10 pg/ug tumor protein | AMPKa1 p174 marker concentration +/- SD [2, 9]: 3.8 +/− 0.9 pg/ug tumor protein | AMPKa1 p285 marker concentration +/- SD [2, 9]: 19 +/− 5 pg/ug tumor protein | Gsk3b Phospho marker concentration +/- SD [2, 9]: 1474 +/− 294 ng calibrator lysate protein/w | Gsk3b Total marker concentration +/- SD [2, 9]: 3829 +/− 1058 ng calibrator lysate protein/w | Mek1/2 Phospho marker concentration +/- SD [2, 9]: 113 +/− 24 ng calibrator lysate protein/w | Mek1/2 Total marker concentration +/- SD [2, 9]: 359 +/− 103 ng calibrator lysate protein/w | STAT3 Phospho marker concentration +/- SD [2, 9]: 41 +/− 10 ng calibrator lysate protein/w | Jnk Phospho marker concentration +/- SD [2, 10]: 110 +/− 22 ng calibrator lysate protein/w | Jnk Total marker concentration +/- SD [2, 10]: 878 +/− 231 ng calibrator lysate protein/w | PlGF Total marker concentration +/- SD [2, 10]: 0.144 +/− 0.073 pg/ug tumor protein | VEGF Total marker concentration +/- SD [2, 10]: 26 +/− 15 pg/ug tumor protein | VEGFR-1 Total marker concentration +/- SD [2, 10]: 0.39 +/− 0.14 pg/ug tumor protein | bFGF Total marker concentration +/- SD [2, 10]: 2.6 +/− 1.3 pg/ug tumor protein | Hif1a Total marker concentration +/- SD [2, 9]: 14 +/− 3 ng calibrator lysate protein/w | effect on tumor vasculature [3]: reduction in tumor vasculature | effect on GSK3β activity [4]: activates GSK30

From patent publication US11105799B2, “Biomarkers of therapeutic responsiveness” (Meso Scale Technologies, LLC., priority 2009, dated 2021)
